Laboratory results from patent US7427599B2, “Biologically active peptide comprising Tyrosyl-seryl-valine(YSV)” (CMS Peptides Patent Holding Company Limited, priority 2003, dated 2008).
Peptide text beside a SMILES is read from it.

What was measured:
[1] = tested on: human leukemia K562 cells; test: Proliferation of cultured human leukemia K562 cells in vitro (MTT); type: cell-based; conditions: for % inhibition / OD value: 48 hours; for OD value: MTT OD570 nm, negative control 0.43 ± 0.01
Experimental: A human leukemia K562 cell at logarithmic growth phase was adjusted to density of 5×10^4/ml with RPMI-1640 culture medium containing 10% FBS. 100 μl/well of the cell were placed onto a 96 wells cell culture plate. The cells were incubated for 24 hours at 37° C., 5% CO2. The experiment included […] with different concentrations of YSV in culture medium and a negative control group with culture medium only. The final concentrations of YSV were 40 μg/ml, 20 μg/ml, 10 μg/ml, and 5 μg/ml. Each group contained five parallel wells. 100 μl/well testing solution was added to the treated cells. The cells were incubated for 48 hours at 37° C., 5% CO2.
(§1) The cells were then pelleted by centrifugation at 150 g for 10 minutes. The supernatant was removed and 100 μl/well MTT solution of 0.5 mg/ml in RPMI-1640 was added to the cell pellets and the cells were re-suspended by shaking for 2 minutes. Incubation was continued for 4 hours. The supernatant was removed after a centrifugation at 150 g for 10 minutes. After blotted dry by filter paper, 100 μl/well 40 mM HCl-2-propanol was added to the cell pellets and shaken for 3 minutes. OD570 nm of each well referenced at 630 nm was obtained by using ELISA reader.

[2] = tested on: Human cervical carcinoma Hela cells; test: Inhibition of growth of human cervical carcinoma Hela cells in vitro (MTT); type: cell-based; conditions: for % inhibition / OD570 nm: 48 hours; for OD570 nm: MTT, negative control 0.24 ± 0.01
Experimental: Human cervical carcinoma Hela cells at logarithmic growth phase were detached by incubating for 2 to 3 minutes with PBS containing 0.05% trypsin and 0.02% EDTA. The cells were examined by inverted phase contrast microscopy. The supernatant was removed after cytoplasm pyknosis and dilatation of cell compartment were observed. A few milliliters of RPMI-1640 medium with 10% FBS were added to terminate the digestion. The cells were harvested by gently blowing with a pipette. The cells were collected by centrifugation at 150 g for 10 minutes, and washed twice by cold Hank's solution with re-suspension and centrifugation. The cell pellets were re-suspended in RPMI-1640 medium with 10% FBS and adjusted to density of 5×10^4/ml. The treated cells were placed onto a 96 wells cell culture plate, 100 μl/well. The cells were incubated for 24 hours at 37° C., 5% CO2 for re-activation and attachment.
The experiment included two testing groups with different concentrations of YSV in culture medium, and a negative control with culture medium only. The final concentrations of YSV were 10 μg/ml and 5 μg/ml. Each group contained five parallel wells. 100 μl/well testing solution was added to the treated cells. The cells were incubated for 48 hours at 37° C., 5% CO2.
as §1, with “were” for “were then”, “discarded” for “removed”, “MTT” for “MTT solution”, “after” for “after a”

[3] = tested on: human leukemia K562; test: Growth of nude mice-transplanted human leukemia K562; type: in vivo, nude mice (BALB/C (nu/nu))
Experimental: K-562 cells were maintained in RPMI-1640 medium with 10% FBS at 37° C., 5% CO2.
K562 cells at log phase were adjusted to 1.6×10^8/ml with RPMI-1640. 0.1 ml of this was subcutaneously injected to the right flank of the healthy nude mice to form the leukemia mice model.
The mice bearing human leukemia K562 cells were randomized into groups of: saline control (0.2 ml/day), and YSV (160 μg/kg/day). The test substance was dissolved in 0.2 ml saline and administration of the test substance by intraperitoneal injection was started on the next day after the K562 inoculation, once per day for 30 consecutive days.
The general conditions of the mice was examined daily and the tumor size was measured in every 3-4 days. Tumor volume (mm^3) V=(⅙)πXYZ where X, Y, and Z were the diameters of the tumor on the three planes.
On the next day after the last test substance administration, the tumors were excised, the weight of tumor was recorded and the tumor volume was measured. Tumor growth inhibition index (%)=(mean tumor weight of control group—mean tumor weight of treatment group)/mean tumor weight of control group×100)
All the data were shown as arithmetic mean ±SD. The data were analyzed using the ANOVA test of the SPSS software. P<0.05 was accepted as having statistical significance.

[4] = tested on: melanoma B16; test: Growth of C57BL/6 mice-transplanted melanoma B16; type: in vivo; conditions: for The Inhibition rate (%) / Tumor weight: 20 consecutive days; for Tumor weight: saline 2.64 ± 0.68
Experimental: B16 cells were maintained in RPMI-1640 medium with 10% FBS at 37° C., 5% CO2. Mouse B16 melanoma culture at log phase was adjusted to 2.5×10^6/ml with Hank's solution. 0.2 ml of this was subcutaneously injected to the right axilla of healthy C57 BL/6 mice to form the melanoma mice model. […] From the next day after the tumor implantation, the general conditions of the mice and the growth of the tumor were observed daily. On the next day after the last test substance administration, the tumors were extirpated and the weights of tumor were measured. […] The results were presented as arithmetic mean ±SD. Statistical analysis was performed using the ANOVA test of the SPSS software.

[5] = suitable dosage, p<0.05 vs saline

## CC(C)[C@H](NC(=O)[C@H](CO)NC(=O)[C@@H](N)Cc1ccc(O)cc1)C(=O)O [YSV, L-Tyrosyl-L-seryl-L-valine] (H-Tyr-Ser-Val-OH)
[1]; 5 μg/ml to 40 μg/ml, p<0.05
  inhibition of growth of K562 cells in vitro (conclusion): able to inhibit the growth of human leukemia K562 cells in vitro
[1]; 5 μg/ml
  % inhibition: 9.7%
  OD value: 0.39 ± 0.01
[1]; 10 μg/ml
  % inhibition: 9.3%
  OD value: 0.39 ± 0.01
[1]; 20 μg/ml
  % inhibition: 11.3%
  OD value: 0.38 ± 0.00
[1]; 40 μg/ml
  % inhibition: 10.8%
  OD value: 0.38 ± 0.00
[2]; 5 μg/ml to 10 μg/ml, p<0.05
  inhibition of growth of Hela cells in vitro (conclusion): able to inhibit the growth of human cervical carcinoma Hela cells in vitro
[2]; 5 μg/ml
  % inhibition: 18.4%
  OD570 nm: 0.22 ± 0.00
[2]; 10 μg/ml
  % inhibition: 19.6%
  OD570 nm: 0.22 ± 0.01
[3]; 160 μg/kg/day intraperitoneal, 30 consecutive days, from tumor weight vs saline
  Inhibition index (%): 37.9%
[3]; 160 μg/kg/day intraperitoneal, 30 consecutive days, saline 4.75 ± 2.21
  Tumor weight: 2.95 ± 1.58 g
[3]; 160 μg/kg/day intraperitoneal, 30 consecutive days, saline 5.08 ± 2.15
  Tumor volume (cm3): 3.15 ± 1.74 cm3
[3]; [5]
  inhibition of growth of nude mice-transplanted K562 (conclusion): able to inhibit the growth of nude mice-transplanted significantly human leukemia K562
[4]; 320 μg/kg/day intraperitoneal
  The Inhibition rate (%): 39.6%
  Tumor weight: 1.60 ± 1.21 g
[4]; 640 μg/kg/day intraperitoneal
  The Inhibition rate (%): 44.6%
  Tumor weight: 1.47 ± 0.92 g
[4]; [5]
  inhibition of growth of B16 melanoma in C57BL/6 mice (conclusion): able to inhibit the growth of B16 melanoma in C57BL/6 mice
